Test results reported in patent publication US20240026278A1, “BLOOD CELL LYSING AGENT FOR ISOLATING BACTERIA FROM BLOOD CULTURE” (Becton, Dickinson and Company, priority 2020, published 2024).

Tested on: blood cells
Assay: Lysis of blood cells by the lysing agent
Assay type: cell-based
Details: in lysing buffer
Text: Currently available methods employ saponin to lyse blood cells for isolating bacteria from positive blood cultures. […] It is probable that this identification failure is due to the blood cells not being completely lysed and/or a high content of blood debris. […] In some embodiments, SDA is very water soluble. An advantage of using SDA as the lysing agent for isolating bacteria from positive blood culture is that the MALDI score for challenging species such as Staphylococcus epidermidis can be higher than the cutoff value, leading to correct species identification. Moreover, processing times using SDA versus saponin can be nearly identical.
FIG. 1 depicts exemplary data related to MALDI scores for Staphylococcus epidermidis isolated from positive blood cultures using different lysing agents, namely saponin (SAP), Nonoxynol-9 (Somatic Cell Digestion Agent (SDA)), and a combination thereof. The concentration of each lysing agent was used at 0.52% (w/w). The score for acceptance of identification is greater than or equal to 1.8 for the Sepsityper database and 2.0 for the standard database. […] SDA is generally used as a spermicide by interacting with the lipids in the membranes of the acrosome and the midpiece of the sperm.

Nonoxynol-9 [SDA]
blood cell lysis: lyse blood cells very efficiently
